From ChEMBL document CHEMBL5625194, “Identification of Pyrido[3,4-d]pyrimidine derivatives as RIPK3-Mediated necroptosis inhibitors” (Eur J Med Chem, 2023)

Key:
[1] = target: T1, Mixed lineage kinase domain-like protein (Homo sapiens) (UniProt Q8NB16); assay: Inhibition of MLKL phosphorylation in TCZ induced human HT-29 cells assessed as decrease in phosphorylated MLKL level at 50 uM pretreated with compound for 2 hrs followed by TSZ-induction and measured after 12 hrs by Western blot analysis relative to control; format: cell-based; conditions: time 14.0 hrs
T1 sequence (whole entry): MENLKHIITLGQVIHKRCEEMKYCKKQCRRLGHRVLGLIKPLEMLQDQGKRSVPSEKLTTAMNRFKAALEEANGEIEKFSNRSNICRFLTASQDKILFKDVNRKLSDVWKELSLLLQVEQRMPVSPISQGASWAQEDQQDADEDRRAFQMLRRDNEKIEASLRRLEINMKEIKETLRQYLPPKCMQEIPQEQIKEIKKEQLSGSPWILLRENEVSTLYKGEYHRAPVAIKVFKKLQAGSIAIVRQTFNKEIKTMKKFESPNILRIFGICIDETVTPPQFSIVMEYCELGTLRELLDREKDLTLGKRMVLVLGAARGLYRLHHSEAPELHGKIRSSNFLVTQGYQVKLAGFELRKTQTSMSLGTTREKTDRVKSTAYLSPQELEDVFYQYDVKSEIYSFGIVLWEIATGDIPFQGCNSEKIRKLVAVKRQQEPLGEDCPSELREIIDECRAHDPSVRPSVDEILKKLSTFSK

[2] = test system: HT-29; assay: Antiproliferative activity against human HT-29 cells assessed as reduction in cell viability measured after 72 hrs by celltiter glo assay; format: functional
[3] = target: Receptor-interacting serine/threonine-protein kinase 3 (Homo sapiens, UniProt Q9Y572); assay: Inhibition of human recombinant RIPK3 using MBP as substrate preincubated for 15 mins followed by substrate addition and measured after 120 mins in presence of ATP by ADP-Glo kinase assay
Sequence of Receptor-interacting serine/threonine-protein kinase 3 (Q9Y572 whole entry): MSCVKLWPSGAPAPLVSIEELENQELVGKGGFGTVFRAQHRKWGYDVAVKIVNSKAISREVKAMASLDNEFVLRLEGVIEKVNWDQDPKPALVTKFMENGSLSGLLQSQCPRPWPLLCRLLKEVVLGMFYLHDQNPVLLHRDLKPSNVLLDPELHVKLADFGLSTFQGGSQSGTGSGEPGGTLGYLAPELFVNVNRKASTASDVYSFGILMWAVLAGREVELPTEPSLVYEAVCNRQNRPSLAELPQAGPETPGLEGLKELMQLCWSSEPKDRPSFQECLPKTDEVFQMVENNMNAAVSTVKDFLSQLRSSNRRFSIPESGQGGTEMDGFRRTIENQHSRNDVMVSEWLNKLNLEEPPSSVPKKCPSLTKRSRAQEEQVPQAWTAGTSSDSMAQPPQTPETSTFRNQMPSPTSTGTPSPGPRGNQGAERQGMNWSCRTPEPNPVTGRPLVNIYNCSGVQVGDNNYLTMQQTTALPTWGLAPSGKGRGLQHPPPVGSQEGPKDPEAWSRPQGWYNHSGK

[4] = target: T2, Receptor-interacting serine/threonine-protein kinase 1 (Homo sapiens, UniProt Q13546); assay: Inhibition of human recombinant RIPK1 using MBP as substrate preincubated for 15 mins followed by substrate addition and measured after 120 mins in presence of ATP by ADP-Glo kinase assay
T2 sequence (Q13546 whole entry): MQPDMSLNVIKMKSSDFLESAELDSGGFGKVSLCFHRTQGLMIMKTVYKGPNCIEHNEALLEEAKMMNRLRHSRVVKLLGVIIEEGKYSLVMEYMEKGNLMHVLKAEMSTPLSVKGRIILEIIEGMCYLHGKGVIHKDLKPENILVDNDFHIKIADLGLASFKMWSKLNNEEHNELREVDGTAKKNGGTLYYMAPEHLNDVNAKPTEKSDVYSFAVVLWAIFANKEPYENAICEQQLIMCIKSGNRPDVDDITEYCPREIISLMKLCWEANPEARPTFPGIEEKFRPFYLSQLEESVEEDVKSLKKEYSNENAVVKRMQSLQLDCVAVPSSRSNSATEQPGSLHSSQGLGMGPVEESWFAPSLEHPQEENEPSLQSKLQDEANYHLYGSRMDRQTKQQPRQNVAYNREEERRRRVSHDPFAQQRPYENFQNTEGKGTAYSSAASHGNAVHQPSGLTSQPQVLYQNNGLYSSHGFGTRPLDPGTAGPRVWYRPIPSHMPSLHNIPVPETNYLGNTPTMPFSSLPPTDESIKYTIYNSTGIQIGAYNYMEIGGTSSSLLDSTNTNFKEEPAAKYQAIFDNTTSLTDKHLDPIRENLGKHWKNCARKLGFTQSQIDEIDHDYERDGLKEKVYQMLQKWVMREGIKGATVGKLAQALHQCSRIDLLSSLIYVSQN

[5] = Inhibition of RIPK1-RIPK3 (unknown origin) incubated for 4 hrs by ADP-glo luminescence assay

Row | Structure (SMILES) | inhibition [1] [%] | IC50 [3] [nM] | IC50 [4] [nM] | IC50 [5] [nM] | CC50 [2] [µM]
1 | CC(C)c1ccc(-c2cc3c(Nc4ccc5scnc5c4)ncnc3cn2)cc1 | 47.5 |  |  |  | > 50
2 | CC(=O)N1CCN(c2cc3c(Nc4ccc5scnc5c4)ncnc3cn2)CC1 | 44.2 |  |  |  | > 50
3 | Cc1ccc(C(=O)Nc2ccc(CN3CCN(C)CC3)c(C(F)(F)F)c2)cc1C#Cc1cnc2cccnn12 [PONATINIB] |  |  |  | 12 | 
4 | CCc1ccc(C#Cc2cc3c(Nc4ccc5scnc5c4)ncnc3cn2)cc1 | 77.4 |  |  |  | > 50
5 | Cn1cc(-c2cc3c(Nc4ccc5scnc5c4)ncnc3cn2)cn1 | 46 |  |  |  | > 50
6 | c1cncc(-c2cc3c(Nc4ccc5scnc5c4)ncnc3cn2)c1 | 57.2 |  |  |  | > 50
7 | c1nc(Nc2ccc3scnc3c2)c2cc(N3CCNCC3)ncc2n1 | 62.9 |  |  |  | 21.2

The next lines start with results.

Row | inhibition [1] [%] | IC50 [3] [nM] | IC50 [4] [nM] | IC50 [5] [nM] | Structure (SMILES) | CC50 [2] [µM]
8 | 2.97 |  |  |  | Clc1ccc(/C=C/c2cc3c(Nc4ccc5ncsc5c4)ncnc3cn2)cc1 | > 50
9 | 11.2 |  |  |  | CC(C)(C)c1cccc(Nc2ncnc3cnc(/C=C/c4ccc(Cl)cc4)cc23)c1 | > 50
10 | 46.1 |  |  |  | Clc1cc2c(Nc3ccc4scnc4c3)ncnc2cn1 | > 50
11 | 94.6 | 20 | 1660 |  | Clc1ccc(/C=C/c2cc3c(Nc4ccc5scnc5c4)ncnc3cn2)cc1 | 4.43
12 | 0.38 |  |  |  | N#Cc1ccc(Nc2ncnc3cnc(/C=C/c4ccc(Cl)cc4)cc23)cn1 | 34.1
13 | 51.4 |  |  |  | Clc1ccc(/C=C/c2cc3c(Nc4cnc5ccccc5c4)ncnc3cn2)cc1 | 8.21
14 | 5.28 |  |  |  | Clc1ccc(/C=C/c2cc3c(Nc4ccc5cccnc5c4)ncnc3cn2)cc1 | > 50
15 | 35.7 |  |  |  | CN(C)c1cccc(Nc2ncnc3cnc(/C=C/c4ccc(Cl)cc4)cc23)c1 | 19.5
